In the NIST ThermoML archive (doi:10.1007/s10765-014-1598-0):

What was measured:
[1] = wn = mass fraction of the nth substance listed; settings: Liquid, Parallel plate method
[2] = Liquid, Parallel plate method

O=P(O)(O)O [phosphoric acid] + O
[1]
Settings | thermal conductivity [W/m/K]
291.42 K, 5000 kPa, w1 = 0.08 | 0.568
291.7 K, 15000 kPa, w1 = 0.08 | 0.578
292.71 K, 101 kPa, w1 = 0.5 | 0.482
293.15 K, 15000 kPa, w1 = 0.5 | 0.498
293.16 K, 101 kPa, w1 = 0.08 | 0.566
293.26 K, 5000 kPa, w1 = 0.5 | 0.489
294.15 K, 5000 kPa, w1 = 0.155 | 0.545
294.23 K, 15000 kPa, w1 = 0.155 | 0.556
294.32 K, 101 kPa, w1 = 0.155 | 0.529
298.48 K, 101 kPa, w1 = 0.08 | 0.575
300.86 K, 101 kPa, w1 = 0.5 | 0.493
303.03 K, 101 kPa, w1 = 0.155 | 0.545
310.72 K, 5000 kPa, w1 = 0.155 | 0.568
310.89 K, 15000 kPa, w1 = 0.155 | 0.58
312.81 K, 15000 kPa, w1 = 0.5 | 0.525
313.19 K, 5000 kPa, w1 = 0.5 | 0.516
313.91 K, 101 kPa, w1 = 0.08 | 0.597
313.94 K, 101 kPa, w1 = 0.155 | 0.561
314.07 K, 101 kPa, w1 = 0.155 | 0.563
315.13 K, 101 kPa, w1 = 0.5 | 0.514
315.16 K, 5000 kPa, w1 = 0.08 | 0.609
315.18 K, 15000 kPa, w1 = 0.08 | 0.613
320.54 K, 101 kPa, w1 = 0.08 | 0.607
321.54 K, 101 kPa, w1 = 0.155 | 0.571
329.59 K, 101 kPa, w1 = 0.5 | 0.53
330.24 K, 15000 kPa, w1 = 0.5 | 0.545
330.25 K, 101 kPa, w1 = 0.155 | 0.582
330.43 K, 5000 kPa, w1 = 0.5 | 0.54
332.5 K, 15000 kPa, w1 = 0.155 | 0.605
332.65 K, 5000 kPa, w1 = 0.155 | 0.592
334.07 K, 5000 kPa, w1 = 0.08 | 0.633
334.29 K, 15000 kPa, w1 = 0.08 | 0.641
339.46 K, 101 kPa, w1 = 0.5 | 0.538
342.35 K, 101 kPa, w1 = 0.155 | 0.598
342.83 K, 101 kPa, w1 = 0.08 | 0.63
343.21 K, 101 kPa, w1 = 0.155 | 0.599
345.9 K, 101 kPa, w1 = 0.08 | 0.634
350.37 K, 15000 kPa, w1 = 0.08 | 0.654
350.49 K, 5000 kPa, w1 = 0.08 | 0.646
352.63 K, 15000 kPa, w1 = 0.5 | 0.566
352.82 K, 5000 kPa, w1 = 0.5 | 0.569
352.88 K, 101 kPa, w1 = 0.155 | 0.607
353.04 K, 5000 kPa, w1 = 0.155 | 0.615
353.17 K, 15000 kPa, w1 = 0.155 | 0.622
354.94 K, 101 kPa, w1 = 0.5 | 0.55
355.76 K, 101 kPa, w1 = 0.08 | 0.642
360.16 K, 101 kPa, w1 = 0.155 | 0.613
360.21 K, 101 kPa, w1 = 0.155 | 0.614
363.17 K, 5000 kPa, w1 = 0.5 | 0.564
363.2 K, 15000 kPa, w1 = 0.5 | 0.572
364.06 K, 15000 kPa, w1 = 0.155 | 0.632
364.17 K, 5000 kPa, w1 = 0.155 | 0.626
364.98 K, 15000 kPa, w1 = 0.08 | 0.666
365.14 K, 5000 kPa, w1 = 0.08 | 0.667
369.33 K, 101 kPa, w1 = 0.08 | 0.65
370.07 K, 101 kPa, w1 = 0.155 | 0.618
372.13 K, 101 kPa, w1 = 0.5 | 0.56
380.77 K, 15000 kPa, w1 = 0.08 | 0.673
380.93 K, 5000 kPa, w1 = 0.08 | 0.669
383.41 K, 15000 kPa, w1 = 0.5 | 0.58
383.52 K, 5000 kPa, w1 = 0.5 | 0.575
385.14 K, 15000 kPa, w1 = 0.155 | 0.64
385.31 K, 5000 kPa, w1 = 0.155 | 0.636
397.89 K, 5000 kPa, w1 = 0.155 | 0.635
399.66 K, 15000 kPa, w1 = 0.5 | 0.583
399.84 K, 15000 kPa, w1 = 0.08 | 0.677
400.05 K, 5000 kPa, w1 = 0.08 | 0.672
400.07 K, 15000 kPa, w1 = 0.155 | 0.642
400.18 K, 5000 kPa, w1 = 0.5 | 0.58

O [water]
[2]
Settings | thermal conductivity [W/m/K]
292.04 K, 101 kPa | 0.596
292.37 K, 5000 kPa | 0.599
292.41 K, 15000 kPa | 0.606
301.85 K, 101 kPa | 0.612
308.34 K, 101 kPa | 0.622
313.16 K, 5000 kPa | 0.634
313.35 K, 15000 kPa | 0.636
318.33 K, 101 kPa | 0.634
327.48 K, 101 kPa | 0.645
332.62 K, 15000 kPa | 0.657
332.85 K, 5000 kPa | 0.656
337.32 K, 101 kPa | 0.655
346.93 K, 101 kPa | 0.662
351.91 K, 5000 kPa | 0.671
353.17 K, 15000 kPa | 0.673
356.69 K, 101 kPa | 0.668
364.08 K, 5000 kPa | 0.679
364.53 K, 15000 kPa | 0.682
371.79 K, 101 kPa | 0.677
382.36 K, 15000 kPa | 0.688
382.41 K, 5000 kPa | 0.686
398.77 K, 5000 kPa | 0.688
399.64 K, 15000 kPa | 0.691

O [water] + O=P(O)(O)O
[1], w2 = 0
Settings | thermal conductivity [W/m/K]
292.04 K, 101 kPa | 0.596
292.37 K, 5000 kPa | 0.599
292.41 K, 15000 kPa | 0.606
301.85 K, 101 kPa | 0.612
308.34 K, 101 kPa | 0.622
313.16 K, 5000 kPa | 0.634
313.35 K, 15000 kPa | 0.636
318.33 K, 101 kPa | 0.634
327.48 K, 101 kPa | 0.645
332.62 K, 15000 kPa | 0.657
332.85 K, 5000 kPa | 0.656
337.32 K, 101 kPa | 0.655
346.93 K, 101 kPa | 0.662
351.91 K, 5000 kPa | 0.671
353.17 K, 15000 kPa | 0.673
356.69 K, 101 kPa | 0.668
364.08 K, 5000 kPa | 0.679
364.53 K, 15000 kPa | 0.682
371.79 K, 101 kPa | 0.677
382.36 K, 15000 kPa | 0.688
382.41 K, 5000 kPa | 0.686
398.77 K, 5000 kPa | 0.688
399.64 K, 15000 kPa | 0.691
